{
  "source": "patent US20050175688A1",
  "about": "(priority 2004, published 2005)",
  "key": {"[1]": {"test_system": "chronic pelvic pain/endometriosis", "assay": "Potaba protocol study: oral Potaba in women with chronic pelvic pain/endometriosis", "format": "in vivo", "protocol": "The total number of women under clinical examination was 212.\nAll of those who volunteered for the therapy protocol met the criteria of 10 points or more on the self-test, that threshold defining a subject who was at risk for endometriosis.\nA pelvic pain assessment which was originated by the International Pelvic Pain Society© 1999 (IPPS) was also conducted. IPPS evaluated the volunteer subjects for the following information: pain, menses, bladder, bowel habits, gastro-intestinal/eating habits, health habits, coping mechanisms, a short form McGill questionnaire (psychological; level of depression assay), daily activities, personal history, surgical history, sexual history and physical history.\nIn addition to a careful review of the pre-test examinations of the prospective subjects, exclusion criteria were also established as a means of reducing unrelated influences into the test results.\nOnly one physician conducted the physical evaluation of each of the participants to ensure consistency throughout the study. In addition to repeated laboratory and thorough physical examinations, the examining physician personally discussed and recorded responses to questions about the presence or absence of side-effects and improvements in symptoms, if any. […] Although the subjects individual responses to questions regarding symptoms and particularly levels of pain experience throughout the test period inherently can include a subjective element, the questions were repetitiously and precisely posed to the subjects so as to prompt a consistent response minimally effected by the questioner's choice of words, tone, delivery, etc. The test subjects reported pelvic pain experience as a number selected between the levels of 1 to 10, with 1 being no pain experienced and 10 being the most severe level of pain."}, "Solubility in water": {"assay": "Solubility in water", "format": "physicochemical"}, "[2]": {"conditions": "12 grams/day po, out of 25 participants"}},
  "data": [
    {"smiles": "Nc1ccc(C(=O)O)cc1", "note": "[Potaba, aminobenzoate potassium]", "values": [
      {"measurement": "Discontinued Potaba protocol (reason): nausea, No. of Study Participants", "setting": "[1]; [2]", "result": 3},
      {"measurement": "Discontinued Potaba protocol (reason): rash, No. of Study Participants", "setting": "[1]; [2]", "result": 2},
      {"measurement": "incidence of drug interactions", "setting": "[1]; oral administration", "result": "low incidence of drug interactions"},
      {"measurement": "toxicity / safety of oral administration (result in words)", "setting": "[1]; oral administration, potassium", "result": "non-toxic and safe"},
      {"measurement": "solubility in water", "setting": "Solubility in water", "result": "highly soluble in water"}
    ]}
  ]
}
